Measured values as given in patent publication EP4737450A1 (Longwood Pharmaceuticals (Hangzhou) Co., Ltd, priority 2023, dated 2025).

Experiments:
plasma kallikrein (PKa) = target: T1, plasma kallikrein (PKa) (Homo sapiens, UniProt P03952); experiment: Inhibitory activity against plasma kallikrein in vitro (fluorescence intensity enzyme assay, Pro-Phe-Arg-AMC substrate); assay type: biochemical; conditions: plasma kallikrein enzyme assay, Pro-Phe-Arg-AMC substrate; read-out: PKa IC50
T1 construct: purchased R & D 2497-SE
Summary of the method: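 Fluorescence intensity enzyme assay with 10 nM enzyme and 60 µM Pro-Phe-Arg-AMC (final concentrations). Compounds in DMSO, tested in duplicate over a dose series. IC50 from nonlinear regression curve fitting.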

KLK1 = KLK1 (Homo sapiens, UniProt P06870); experiment: Inhibitory activity against KLK1 in vitro (biochemical assay); conditions: values given in µM
Summary of the method: (§1)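 Compounds were dispensed acoustically from DMSO and tested in duplicate. IC50 values came from nonlinear regression curve fitting.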

FXIa = FXIa (Homo sapiens, UniProt P03951); experiment: Inhibitory activity against FXIa in vitro (biochemical assay); conditions: values given in µM
Summary of the method: as §1

T1 sequence (P03952 391-638 limits assumed): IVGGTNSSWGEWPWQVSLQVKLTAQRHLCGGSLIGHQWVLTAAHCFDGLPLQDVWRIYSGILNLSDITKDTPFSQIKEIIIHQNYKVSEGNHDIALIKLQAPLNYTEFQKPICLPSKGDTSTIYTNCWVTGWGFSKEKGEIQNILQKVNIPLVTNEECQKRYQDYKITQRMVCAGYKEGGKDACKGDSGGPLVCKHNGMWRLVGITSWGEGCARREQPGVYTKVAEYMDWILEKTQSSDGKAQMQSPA
T1 sequence (P03952 20-390 partner limits assumed): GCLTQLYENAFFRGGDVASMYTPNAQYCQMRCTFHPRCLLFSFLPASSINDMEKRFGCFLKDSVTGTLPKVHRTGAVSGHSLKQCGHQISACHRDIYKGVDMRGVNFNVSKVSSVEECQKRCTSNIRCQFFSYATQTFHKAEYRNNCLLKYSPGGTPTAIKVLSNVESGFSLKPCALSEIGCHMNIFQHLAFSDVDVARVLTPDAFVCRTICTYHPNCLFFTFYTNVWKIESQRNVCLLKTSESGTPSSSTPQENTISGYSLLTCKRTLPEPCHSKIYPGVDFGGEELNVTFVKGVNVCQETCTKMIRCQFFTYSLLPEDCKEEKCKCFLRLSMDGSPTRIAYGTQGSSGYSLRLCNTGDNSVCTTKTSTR
Sequence of FXIa (P03951 388-625 limits assumed): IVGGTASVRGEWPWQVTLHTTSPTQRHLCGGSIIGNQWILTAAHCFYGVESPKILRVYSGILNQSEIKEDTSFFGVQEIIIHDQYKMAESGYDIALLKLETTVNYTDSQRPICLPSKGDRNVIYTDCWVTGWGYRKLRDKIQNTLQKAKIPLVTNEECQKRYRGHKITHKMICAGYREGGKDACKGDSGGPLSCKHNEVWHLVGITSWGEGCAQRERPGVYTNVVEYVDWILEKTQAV
Sequence of FXIa (P03951 19-387 partner limits assumed): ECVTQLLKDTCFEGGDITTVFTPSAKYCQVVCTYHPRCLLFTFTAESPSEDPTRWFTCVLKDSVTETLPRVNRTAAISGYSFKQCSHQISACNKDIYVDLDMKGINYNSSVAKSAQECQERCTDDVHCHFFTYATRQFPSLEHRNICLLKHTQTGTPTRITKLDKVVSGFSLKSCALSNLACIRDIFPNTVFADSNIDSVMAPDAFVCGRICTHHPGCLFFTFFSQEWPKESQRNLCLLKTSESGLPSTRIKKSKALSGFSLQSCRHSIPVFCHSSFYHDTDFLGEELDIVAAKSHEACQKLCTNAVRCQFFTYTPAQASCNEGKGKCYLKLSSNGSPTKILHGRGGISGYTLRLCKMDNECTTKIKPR
Sequence of KLK1 (P06870 25-262, species assumed): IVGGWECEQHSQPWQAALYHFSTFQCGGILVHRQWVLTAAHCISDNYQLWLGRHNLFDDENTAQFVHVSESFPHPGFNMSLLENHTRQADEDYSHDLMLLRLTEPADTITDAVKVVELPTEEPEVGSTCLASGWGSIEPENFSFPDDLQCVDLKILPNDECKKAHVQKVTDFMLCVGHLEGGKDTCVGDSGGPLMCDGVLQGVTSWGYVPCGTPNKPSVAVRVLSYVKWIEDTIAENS

Row | IC50 (plasma kallikrein (PKa)) [nM] | IC50 (KLK1) [µM] | IC50 (FXIa) [µM] | Structure (SMILES)
1 | 1.38 | > 10 | > 10 | Cn1ccc2cnc(CNC(=O)c3cn(Cc4ccc(Cn5ccccc5=O)cc4)nc3C3COC3)c(F)c21 [Compound 338]
2 | 0.07 | > 10 | > 10 | N=C(N)c1ccc(CNC(=O)c2cnn(Cc3ccc(Cn4ccccc4=O)cc3)c2)c(F)c1 [Compound 341]
3 | 1.98 | > 10 | > 10 | N=C(N)c1ccc(CNC(=O)c2cnn(Cc3cc(F)c(OCC4CC4)c(F)c3)c2)cc1 [Compound 345]
4 | 1.04 | > 10 | > 10 | N=C(N)c1ccc(CNC(=O)c2cnn(Cc3c(Cl)cc(CC4CC4)cc3Cl)c2)cc1 [Compound 347]
5 | 1.13 | > 10 | > 10 | Cc1nc(C)n(Cc2ccc(Cn3cc(C(=O)NCc4ccc(C(=N)N)cc4F)cn3)cc2)n1 [Compound 351]
6 | 0.79 | > 10 | > 10 | N=C(N)c1ccc(CNC(=O)c2cnn(Cc3ccc(Cn4ccccc4=O)cc3)c2)cn1 [Compound 353]
7 | 2.45 | > 10 | > 10 | N=C(N)c1ccc(CNC(=O)c2cnn(Cc3ccc(OC4CC4)cc3)c2)cc1 [Compound 354]
8 | 0.12 | > 10 | > 10 | Cc1cc(C)n(Cc2ccc(Cn3cc(C(=O)NCc4ccc(C(=N)N)cc4F)cn3)cc2)n1 [Compound 355]
9 | 2.23 | > 10 | > 10 | Cn1ccc2cnc(CNC(=O)c3cnn(Cc4ccc(Cn5ccccc5=O)cc4)c3)c(F)c21 [Compound 356]
10 | 1.9 | > 10 | > 10 | O=C(NCc1ncc2cc[nH]c2c1F)c1cn(Cc2ccc(Cn3ccccc3=O)cc2)nc1C(F)(F)F [Compound 357]
11 | 0.09 | > 10 | > 10 | COCc1nn(Cc2ccc(Cn3ccccc3=O)cc2)cc1C(=O)NCc1ccc(C(=N)N)nc1 [Compound 361]
12 | 2.57 | > 10 | > 10 | O=C(NCc1ncc2cc[nH]c2c1F)c1cnn(Cc2ccc(Cn3ccccc3=O)cc2)c1 [Compound 362, N-((7-fluoro-1H-pyrrolo[3,2-c]pyridin-6-yl)methyl)-1-(4-((2-oxopyridin-1(2H)-yl)methyl)benzyl)-1H-pyrazole-4-carboxamide]
13 | 2.14 | > 10 | > 10 | COCc1nn(Cc2ccc(Cn3ccccc3=O)cc2)cc1C(=O)NCc1ncc2ccn(C)c2c1F [Compound 363]
14 | 2.06 | > 10 | > 10 | COCc1nn(Cc2ccc(Cn3ccccc3=O)cc2)cc1C(=O)NCc1ncc2cc[nH]c2c1F [Compound 364]
15 | 1.87 | > 10 | > 10 | N=C(N)c1ccc(CNC(=O)c2cnn(Cc3cc(F)c(OC4CC4)c(F)c3)c2)cc1 [Compound 365]
16 | 0.07 | > 10 | > 10 | Cc1cc(C)n(Cc2ccc(Cn3cc(C(=O)NCc4ccc(C(=N)N)cc4)cn3)cc2)n1 [Compound 366]
17 | 0.19 | > 10 | > 10 | N=C(N)c1ccc(CNC(=O)c2cnn(Cc3c(F)cc(N4CC5C(C4)C5(F)F)cc3F)c2)cc1 (stereo not drawn) [Compound 368]
18 | 10.2 | > 10 | > 10 | Cn1cc(F)c2cnc(CNC(=O)c3cnn(Cc4ccc(Cn5ccccc5=O)cc4)c3)c(F)c21 [Compound 370]
19 | > 100 | > 10 | > 10 | COc1cc(Cn2cc(C(=O)NCc3ccc(C(=N)N)cc3)cn2)cc(OC)c1C(=O)C1CC1 [Compound 371]
20 | 0.85 | > 10 | > 10 | N=C(N)c1ccc(CNC(=O)c2cnn(Cc3cc(Cl)c(CC4CC4)c(Cl)c3)c2)cc1 [Compound 372]
21 | 0.56 | > 10 | > 10 | N=C(N)c1ccc(CNC(=O)c2cnn(Cc3ccc(CC4CC4)nc3)c2)cc1 [Compound 373]
